The test deals with VEGF. Nature of the test: VEGF-ELISA assay, VEGF secretion from HL-1 cardiomyocyte cell line. Format: cell-based, murine. Particulars: VEGF production; HL-1 cells, 18 hr, 10 concentrations 200 nM to 100 μM; read-out: EC50 (concentration of compound that induces the production of an amount of VEGF equal to half the maximum amount of VEGF induced by the compound). Here is the method:
Any compound of the present invention can be screened by a VEGF-ELISA assay. VEGF secretion is assayed in the HL-1 cardiomyocyte cell line as described in Claycomb. W. C., “HL-1 cells: a cardiac muscle cell line that contracts and retains phenotypic characteristics of the adult cardiomyocyte”, Proc. Natl. Acad. Sci U.S.A., Vol. 95, pp. 2979-84 (1998). For experiments, HL-1 cells are plated in 96-well plates at a density of 2×10^4 cells per well in growth medium: EXCEL 320 media (JRH Biosciences, Lenexia, Kans.) plus 10% fetal bovine serum (BioWhitaker), 100 nM retinoic acid (Sigma, St. Louis, Mo.), 10 μM norepinephrine (Sigma), 10 μg/ml insulin (Life Technologies, Grand Island, N.Y.), 1× non-essential amino acid supplement (Life Technologies), 50 μg/ml endothelial cell growth supplement (Upstate Biotechnology, Lake Placid, N.Y.), 100 units/ml penicillin, 100 units/ml streptomycin (Life Technologies). After 24 hrs, the media is replaced with a low-growth media (HL-1 media with 2% fetal bovine serum and without endothelial cell growth supplement) containing test compounds with 0.5% dimethyl sulfoxide (DMSO). After 18 hrs, conditioned media from the treated cells was assayed for VEGF content with a Murine VEGF-ELISA kit (R&D Systems, Minneapolis, Minn.). The amount of VEGF secreted into the media over an 18 hr period is normalized to positive control wells which are treated with a maximally effective concentration (1 mM) of deferoxamine mesylate (Sigma, St. Louis) and are reported as “percent activity,” where the VEGF in unstimulated wells is defined as 0% and the VEGF in wells treated with 1 mM deferoxamine is defined as 100%. Potency is determined by stimulating cells with 10 concentrations of test compounds (200 nM to 100 μM) and fitting the data to a variable slope sigmoidal dose-response curve using GraphPad Prism version 3.00 for Windows 95 (GraphPad Software, San Diego, Calif.). Determinations for each test compound are performed in three separate experiments and the means ± standard deviation of the […] and maximum response are evaluated. Compounds for pharmaceutical use are selected based upon the greatest percent activity.
(In general: ELISA stands for enzyme-linked immunosorbent assay.)

pEC50: −log10 of the molar value.

On to `c1ccc(C2CC(c3ccccn3)=NN2c2ccccc2)cc1` (centres unmarked) [Example 1, 2-(1,5-Diphenyl-4,5-dihydro-1H-pyrazol-3-yl)-pyridine], for which the pEC50 is 4.64.

Take `c1ccc(C2=NN(c3ccccn3)C(c3ccccc3)C2)cc1` (centres unmarked) [Example 2, 2-(3,5-Diphenyl-4,5-dihydro-pyrazol-1-yl)-pyridine]: the pEC50 is 5.22.

For the molecule `Oc1ccccc1C1=NN(c2ccccn2)C(c2ccccc2)C1` (centres unmarked) [Example 3, 2-(5-Phenyl-1-pyridin-2-yl-4,5-dihydro-1H-pyrazol-3-yl)-phenol], the pEC50 is 5.77. Regarding `Oc1ccccc1C1=NN(c2nc3ccccc3s2)C(c2ccccc2)C1` (centres unmarked) [Example 4, 2-(1-Benzothiazol-2-yl-5-phenyl-4,5-dihydro-1H-pyrazol-3-yl)-phenol], the pEC50 was 4.57. Take `Cc1ccc(C2CC(c3ccccc3O)=NN2c2ccccn2)cc1` (centres unmarked) [Example 5, 2-(1-Pyridin-2-yl-5-p-tolyl-4,5-dihydro-1H-pyrazol-3-yl)-phenol]: the pEC50 is 5.24. For `COc1ccc(C2CC(c3ccccc3O)=NN2c2ccccn2)cc1` (centres unmarked) [Example 6, 2-[5-(4-Methoxy-phenyl)-1-pyridin-2-yl-4,5-dihydro-1H-pyrazol-3-yl]-phenol], the pEC50 is 5.25. For the molecule `COc1ccccc1C1CC(c2ccccc2O)=NN1c1ccccn1` (centres unmarked) [Example 7, 2-[5-(2-Methoxy-phenyl)-1-pyridin-2-yl-4,5-dihydro-1H-pyrazol-3-yl]-phenol], the pEC50 is 5.26. Turning to `Oc1ccccc1C1=NN(c2ccccn2)C(c2ccccn2)C1` (centres unmarked) [Example 8, 2-(1,5-Di-pyridin-2-yl-4,5-dihydro-1H-pyrazol-3-yl)-phenol], the pEC50 is 5.27. For `Oc1ccccc1C1=NN(c2ccccn2)C(c2ccccc2O)C1` (centres unmarked) [Example 9, 2-[5(2-hydroxy-phenyl)-1-pyridin-2-yl-4,5-dihydro-1H-pyrazol-3-yl]-phenol], the pEC50 is 5.27. Take `CN1N=C(c2ccccc2O)CC1c1ccccn1` (centres unmarked) [Example 10, 2-(1-Methyl-5-pyridin-2-yl-4,5-dihydro-1H-pyrazol-3-yl)-phenol]: the pEC50 was 4.04. In the case of `CN1N=C(c2ccccc2O)CC1c1nccs1` (centres unmarked) [Example 11, 2-(1-Methyl-5-thiazol-2-yl-4,5-dihydro-1H-pyrazol-3-yl)-phenol], the pEC50 was 4.92.

As for `OCCN1N=C(c2ccccc2O)CC1c1ccccn1` (centres unmarked) [Example 12, 2-[1-(2-Hydroxy-ethyl)-5-pyridin-2-yl-4,5-dihydro-1H-pyrazol-3-yl]-phenol], the pEC50 is 4.19. As to `N#CCCN1N=C(c2ccccc2O)CC1c1ccccn1` (centres unmarked) [Example 13, 3-[3-(2-Hydroxy-phenyl)-5-pyridin-2-yl-4,5-dihydro-pyrazol-1-yl]-propionitrile], the pEC50 is 4.74. For the molecule `Cc1ccc(N2N=C(c3ccccn3)CC2c2ccccc2)cc1` (centres unmarked) [Example 14, 2-(5-Phenyl-1-p-tolyl-4,5-dihydro-1H-pyrazol-3-yl)-pyridine], the pEC50 was 5.70. For the molecule `Brc1ccc(N2N=C(c3ccccn3)CC2c2ccccc2)cc1` (centres unmarked) [Example 15, 2-[1-(4-Bromo-phenyl)-5-phenyl-4,5-dihydro-1H-pyrazol-3-yl]-pyridine], the pEC50 is 5.20. As to `Clc1cccc(C2CC(c3ccccn3)=NN2c2ccccc2)c1` (centres unmarked) [Example 16, 2-[5-(3-Chloro-phenyl)-1-phenyl-4,5-dihydro-1H-pyrazol-3-yl]-pyridine], the pEC50 was 5.77.

Take `CN(C)c1ccc(C2CC(c3ccccc3)=NN2c2ccccc2)cc1` (centres unmarked) [Example 17, [4-(2,5-Diphenyl-3,4-dihydro-2H-pyrazol-3-yl)-phenyl]-dimethyl-amine]: the pEC50 is 5.22.

Regarding `COc1ccc(C2CC(c3ccc4ccccc4c3)=NN2C)cc1` (centres unmarked) [Example 18, 5-(4-Methoxy-phenyl)-1-methyl-3-naphthalen-2-yl-4,5-dihydro-1H-pyrazole], the pEC50 is 4.96. As to `CN1N=C(c2ccc3ccccc3c2)CC1c1ccc(F)cc1` (centres unmarked) [Example 19, 5-(4-Fluoro-phenyl)-1-methyl-3-naphthalen-2-yl-4,5-dihydro-1H-pyrazole], the pEC50 was 5.44. For the molecule `CN1N=C(c2ccc3ccccc3c2)CC1c1ccc(C(F)(F)F)cc1` (centres unmarked) [Example 20, 1-Methyl-3-naphthalen-2-yl-5-(4-trifluoromethyl-phenyl)-4,5-dihydro-1H-pyrazole], the pEC50 is 4.89.
